Source: article PMC10707221, “A Novel Lipase from Streptomyces exfoliatus DSMZ 41693 for Biotechnological Applications” (International Journal of Molecular Sciences, 2023)

Test system: T1, SeLipC
T1 construct: gene lipC; Full gene with native signal peptide (33 aa) expressed in Rhodococcus sp; T104 (pENV19), secreted; purified on phenyl sepharose; The printed nt borders (870 nt) give about 289 codons, not 33 + 259
Assay: colorimetric p-nitrophenol release at […] nm, nonlinear hyperbolic fit
Format: biochemical, Streptomyces exfoliatus
Conditions: 50 mM Tris/HCl pH 8.0, 37 °C; pNPP 10-800 µM; standard assay with isopropanol, gum arabic and sodium deoxycholate

- Km: 49.6 ± 11.2 µM
Structure (SMILES): CCCCCCCCCCCCCCCC(=O)Oc1ccc([N+](=O)[O-])cc1 [pNPP, p-nitrophenyl palmitate]
